Legend:
[1] = system: wildtype Wnt signaling cascade; assay: HEK293 TOP assay (Super TopFlash luciferase reporter, Wnt-3a stimulated); type: cell-based; details: Homo sapiens, HEK293, 16 h, HEK293 TOP reporter cells, Wnt3a at EC50, 16 hours
In short: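 Compound series (50 μM down to 15 nM, 3.16-fold) diluted from DMSO 50-fold into CAFTY buffer, pH 7.4, 2 mM Ca^2+, 0.01% BSA, applied to Wnt-3a-stimulated HEK293 TopFlash and FOP reporter lines in parallel. Cells seeded 10000/well 24 h before; luciferase signal measured.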

TNKS1 = biological target: T1, TNKS1 (Homo sapiens, UniProt O95271); assay: TNKS1 Assay B (auto-parsylation, [3H]-NAD+ SPA); type: biochemical; details: 6 nM TNKS1, auto-parsylation, over night at room temperature
T1 construct: purchased BPS Bioscience, San Diego, USA 80579 (TNKS1 Histone Ribosylation Assay Kit)
T1 sequence (O95271 1-1327): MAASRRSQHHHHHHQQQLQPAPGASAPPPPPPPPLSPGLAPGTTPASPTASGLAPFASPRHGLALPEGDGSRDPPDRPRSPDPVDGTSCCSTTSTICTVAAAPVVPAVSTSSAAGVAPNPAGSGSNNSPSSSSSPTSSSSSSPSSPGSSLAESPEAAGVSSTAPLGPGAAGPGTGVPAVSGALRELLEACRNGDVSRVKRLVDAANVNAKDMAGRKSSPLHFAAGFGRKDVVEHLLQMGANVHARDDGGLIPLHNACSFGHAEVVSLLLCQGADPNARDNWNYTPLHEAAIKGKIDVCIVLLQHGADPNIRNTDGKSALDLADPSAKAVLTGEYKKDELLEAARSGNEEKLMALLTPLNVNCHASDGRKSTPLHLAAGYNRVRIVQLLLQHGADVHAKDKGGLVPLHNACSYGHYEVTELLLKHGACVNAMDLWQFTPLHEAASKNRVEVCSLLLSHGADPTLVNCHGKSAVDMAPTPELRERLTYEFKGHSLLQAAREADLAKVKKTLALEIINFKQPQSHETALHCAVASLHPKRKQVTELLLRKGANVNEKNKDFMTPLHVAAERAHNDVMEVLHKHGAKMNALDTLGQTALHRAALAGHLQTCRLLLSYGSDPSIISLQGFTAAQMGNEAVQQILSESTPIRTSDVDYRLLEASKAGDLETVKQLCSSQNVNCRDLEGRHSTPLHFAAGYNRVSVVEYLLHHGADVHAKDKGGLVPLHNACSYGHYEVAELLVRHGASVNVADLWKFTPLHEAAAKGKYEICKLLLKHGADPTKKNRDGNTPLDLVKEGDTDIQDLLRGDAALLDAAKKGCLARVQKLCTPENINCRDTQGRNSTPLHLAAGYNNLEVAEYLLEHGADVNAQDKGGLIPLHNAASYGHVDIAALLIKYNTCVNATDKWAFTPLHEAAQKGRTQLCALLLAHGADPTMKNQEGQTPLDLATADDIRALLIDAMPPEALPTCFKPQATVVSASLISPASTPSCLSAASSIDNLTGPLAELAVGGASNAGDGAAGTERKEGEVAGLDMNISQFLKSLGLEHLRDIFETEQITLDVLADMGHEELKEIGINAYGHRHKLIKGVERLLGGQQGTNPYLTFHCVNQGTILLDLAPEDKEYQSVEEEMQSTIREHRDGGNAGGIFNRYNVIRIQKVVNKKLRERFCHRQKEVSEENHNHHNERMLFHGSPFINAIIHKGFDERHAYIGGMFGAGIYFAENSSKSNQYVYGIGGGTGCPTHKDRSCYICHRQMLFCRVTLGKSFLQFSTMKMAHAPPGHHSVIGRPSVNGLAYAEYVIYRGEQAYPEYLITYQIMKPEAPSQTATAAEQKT

Row | SMILES | IC50 [1] [nM] | IC50 (TNKS1) [nM]
1 | COC(C)(C)CNC(=O)c1nc[nH]c1C(=O)N[C@H]1CC[C@H](C(=O)Nc2ccc(F)cc2Cl)CC1 [Example 73, N^5-{trans-4-[(2-chloro-4-fluorophenyl)carbamoyl]cyclohexyl}-N^4-(2-methoxy-2-methylpropyl)-1H-imidazole-4,5-dicarboxamide] | 400 | 270
2 | O=C(NCCC1CC1)c1nc[nH]c1C(=O)N[C@H]1CC[C@H](C(=O)Nc2ccc(F)cc2Cl)CC1 [Example 74, N^5-{trans-4-[(2-chloro-4-fluorophenyl)carbamoyl]cyclohexyl}-N^4-(2-cyclopropylethyl)-1H-imidazole-4,5-dicarboxamide] | 190 | 84
3 | CC(C)(O)CNC(=O)c1nc[nH]c1C(=O)N[C@H]1CC[C@H](C(=O)Nc2ccc(F)cc2Cl)CC1 [Example 75, N^5-{trans-4-[(2-chloro-4-fluorophenyl)carbamoyl]cyclohexyl}-N^4-(2-hydroxy-2-methylpropyl)-1H-imidazole-4,5-dicarboxamide] | 370 | 84
4 | CC(C)OCCNC(=O)c1nc[nH]c1C(=O)N[C@H]1CC[C@H](C(=O)Nc2ccc(F)cc2Cl)CC1 [Example 76, N^5-{trans-4-[(2-chloro-4-fluorophenyl)carbamoyl]cyclohexyl}-N^4-(2-isopropoxyethyl)-1H-imidazole-4,5-dicarboxamide] | 230 | 94
5 | CC(C)NCCNC(=O)c1nc[nH]c1C(=O)N[C@H]1CC[C@H](C(=O)Nc2ccc(F)cc2Cl)CC1 [Example 77, N^5-{trans-4-[(2-chloro-4-fluorophenyl)carbamoyl]cyclohexyl}-N^4-[2-(isopropylamino)ethyl]-1H-imidazole-4,5-dicarboxamide] | 270 | 37
6 | O=C(NCC1CCCO1)c1nc[nH]c1C(=O)N[C@H]1CC[C@H](C(=O)Nc2ccc(F)cc2Cl)CC1 (stereo partly drawn) [Example 78, N^5-{trans-4-[(2-chloro-4-fluorophenyl)carbamoyl]cyclohexyl}-N^4-(tetrahydrofuran-2-ylmethyl)-1H-imidazole-4,5-dicarboxamide] | 130 | 75
7 | O=C(NC[C@@H]1CCCO1)c1nc[nH]c1C(=O)N[C@H]1CC[C@H](C(=O)Nc2ccc(F)cc2Cl)CC1 [Example 79, N^5-{trans-4-[(2-chloro-4-fluorophenyl)carbamoyl]cyclohexyl}-N^4-[(2S)-tetrahydrofuran-2-ylmethyl]-1H-imidazole-4,5-dicarboxamide] | 140 | 170
8 | O=C(NC[C@H]1CCCO1)c1nc[nH]c1C(=O)N[C@H]1CC[C@H](C(=O)Nc2ccc(F)cc2Cl)CC1 [Example 80, N^5-{trans-4-[(2-chloro-4-fluorophenyl)carbamoyl]cyclohexyl}-N^4-[(2R)-tetrahydrofuran-2-ylmethyl]-1H-imidazole-4,5-dicarboxamide] | 90 | 62
9 | COC(C)CNC(=O)c1nc[nH]c1C(=O)N[C@H]1CC[C@H](C(=O)Nc2ccc(F)cc2Cl)CC1 (stereo partly drawn) [Example 81, N^5-{trans-4-[(2-chloro-4-fluorophenyl)carbamoyl]cyclohexyl}-N^4-(2-methoxypropyl)-1H-imidazole-4,5-dicarboxamide] | 150 | 100
10 | COCC(C)NC(=O)c1nc[nH]c1C(=O)N[C@H]1CC[C@H](C(=O)Nc2ccc(F)cc2Cl)CC1 (stereo partly drawn) [Example 82, N^5-{trans-4-[(2-chloro-4-fluorophenyl)carbamoyl]cyclohexyl}-N^4-(1-methoxypropan-2-yl)-1H-imidazole-4,5-dicarboxamide] | 380 | 300
11 | COC[C@H](C)NC(=O)c1nc[nH]c1C(=O)N[C@H]1CC[C@H](C(=O)Nc2ccc(F)cc2Cl)CC1 [Example 83, N^5-{trans-4-[(2-chloro-4-fluorophenyl)carbamoyl]cyclohexyl}-N^4-[(2S)-1-methoxypropan-2-yl]-1H-imidazole-4,5-dicarboxamide] | 240 | 610
12 | COC[C@@H](C)NC(=O)c1nc[nH]c1C(=O)N[C@H]1CC[C@H](C(=O)Nc2ccc(F)cc2Cl)CC1 [Example 84, N^5-{trans-4-[(2-chloro-4-fluorophenyl)carbamoyl]cyclohexyl}-N^4-[(2R)-1-methoxypropan-2-yl]-1H-imidazole-4,5-dicarboxamide] | 230 | 370
13 | COC(C)(C)CNC(=O)c1nc[nH]c1C(=O)N[C@H]1CC[C@H](C(=O)Nc2cc(F)c(F)cc2Cl)CC1 [Example 85, N^5-{trans-4-[(2-chloro-4,5-difluorophenyl)carbamoyl]cyclohexyl}-N^4-(2-methoxy-2-methylpropyl)-1H-imidazole-4,5-dicarboxamide] | 130 | 49
14 | O=C(NCC1CCCO1)c1nc[nH]c1C(=O)N[C@H]1CC[C@H](C(=O)Nc2cc(F)c(F)cc2Cl)CC1 (stereo partly drawn) [Example 86, N^5-{trans-4-[(2-chloro-4,5-difluorophenyl)carbamoyl]cyclohexyl}-N^4-(tetrahydrofuran-2-ylmethyl)-1H-imidazole-4,5-dicarboxamide] | 94 | 30
15 | COCC(C)NC(=O)c1nc[nH]c1C(=O)N[C@H]1CC[C@H](C(=O)Nc2cc(F)c(F)cc2Cl)CC1 (stereo partly drawn) [Example 87, N^5-{trans-4-[(2-chloro-4,5-difluorophenyl)carbamoyl]cyclohexyl}-N^4-(1-methoxypropan-2-yl)-1H-imidazole-4,5-dicarboxamide] | 60 | 27
16 | CNC(=O)c1nc[nH]c1C(=O)N[C@H]1CC[C@H](C(=O)Nc2cc(N3CCOCC3)ccc2Cl)CC1 [Example 88, N^5-(trans-4-{[2-chloro-5-(morpholin-4-yl)phenyl]carbamoyl}cyclohexyl)-N^4-methyl-1H-imidazole-4,5-dicarboxamide] | 2400 | 3600
17 | O=C(NCC1CCCO1)c1nc[nH]c1C(=O)N[C@H]1CC[C@H](C(=O)Nc2cc(N3CCOCC3)ccc2Cl)CC1 (stereo partly drawn) [Example 89, N^5-(trans-4-{[2-chloro-5-(morpholin-4-yl)phenyl]carbamoyl}cyclohexyl)-N^4-(tetrahydrofuran-2-ylmethyl)-1H-imidazole-4,5-dicarboxamide] | 1200 | 1200
18 | COC(C)(C)CNC(=O)c1nc[nH]c1C(=O)N[C@H]1CC[C@H](C(=O)Nc2cc(N3CCOCC3)ccc2Cl)CC1 [Example 90, N^5-(trans-4-{[2-chloro-5-(morpholin-4-yl)phenyl]carbamoyl}cyclohexyl)-N^4-(2-methoxy-2-methylpropyl)-1H-imidazole-4,5-dicarboxamide] | 1900 | 3100
19 | CC(C)(O)CNC(=O)c1nc[nH]c1C(=O)N[C@H]1CC[C@@]2(CCN(c3cccc(Cl)c3)C2=O)CC1 [Example 284, N^5-[(trans)-2-(3-chlorophenyl)-1-oxo-2-azaspiro[4.5]dec-8-yl]-N^4-(2-hydroxy-2-methylpropyl)-1H-imidazole-4,5-dicarboxamide] | 100 | 650
20 | COCC(C)NC(=O)c1nc[nH]c1C(=O)N[C@H]1CC[C@@]2(CCN(c3cccc(Cl)c3)C2=O)CC1 (stereo partly drawn) [Example 285, N^5-[(trans)-2-(3-chlorophenyl)-1-oxo-2-azaspiro[4.5]dec-8-yl]-N^4-(1-methoxypropan-2-yl)-1H-imidazole-4,5-dicarboxamide] | 92 | 630

Reference: patent US20180148418A1, “AMIDO-SUBSTITUTED CYCLOHEXANE DERIVATIVES” (Bayer Pharma Aktiengesellschaft, priority 2015, published 2018)
